Assay results from US10781224B2, “Bis(oxymethyl)phosphinic acid and biogenic metal salts thereof as regulators of plant growth and development” (priority 2016, dated 2020).

Assays:
[1] = test system: winter wheat (Vershin variety); test: Winter wheat seed treatment with BHMPA salts: germination energy and germination rate; format: in vivo
How it was run: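 Corn, winter wheat and rice seeds (50 per dish, on filter paper) were soaked for 1 h in BHMPA or its metal salts at 1·10^−6-1·10^−12%, with water as control. Germination energy was read on day 4 and germination rate on day 8 for wheat and day 7 for rice and corn, following GOST 12038-84, as the mean of four replicates.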

rice (Diamant variety) = test: Rice seed treatment with BHMPA salts: germinating power; format: in vivo
How it was run: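 Seeds (50 per Petri dish on two layers of filter paper) soaked 1 h in BHMPA or its Ca, Mg, Na, Co, Mn, Cu or Zn salts at 1·10^−6-1·10^−12%, with water controls. Germination energy read on day 4, germination on day 8 (wheat) or day 7 (rice, corn), as % means of four replicates. Germinating power taken as root and sprout length plus wet and dry mass per 100 seedlings.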

[2] = winter wheat Vershin, 1·10^−6% solution
[3] = winter wheat Vershin, 1·10^−7% solution
[4] = winter wheat Vershin, 1·10^−8% solution
[5] = winter wheat Vershin, 1·10^−9% solution
[6] = winter wheat Vershin, 1·10^−10% solution
[7] = winter wheat Vershin, 1·10^−11% solution
[8] = winter wheat Vershin, 1·10^−12% solution
[9] = winter wheat, comparative study vs Melaphen, 1·10^−11% solution
[10] = rice seed treatment, comparison with Melaphen (Table XXXIII), solution 1 · 10^−10%
[11] = rice seeds, solution concentration 1 · 10^−6%
[12] = rice seeds, solution concentration 1 · 10^−7%
[13] = rice seeds, solution concentration 1 · 10^−8%
[14] = rice seeds, solution concentration 1 · 10^−9%
[15] = rice seeds, solution concentration 1 · 10^−10%
[16] = rice seeds, solution concentration 1 · 10^−11%
[17] = rice seeds, solution concentration 1 · 10^−12%
[18] = rice, vs control, 1·10^−10% solution

Compound: O=P([O-])(CO)CO.O=P([O-])(CO)CO.[Mg+2] [Mg-salt, Magnesium BHMPA Salt]
- Germination energy [1, 2]: 85.0%
- Germination rate [1, 2]: 89.3%
- Germination energy [1, 3]: 88.4%
- Germination rate [1, 3]: 92.0%
- Germination energy [1, 4]: 88.8%
- Germination rate [1, 4]: 92.0%
- Germination energy [1, 5]: 89.3%
- Germination rate [1, 5]: 93.0%
- Germination energy [1, 6]: 89.9%
- Germination rate [1, 6]: 93.3%
- Germination energy [1, 7]: 93.1%
- Germination rate [1, 7]: 96.0%
- Germination energy [1, 8]: 90.0%
- Germination rate [1, 8]: 93.3%
- Germination energy [1, 9]: 93.3%
- Germination rate [1, 9]: 96.7%
- optimum concentration for treating rice seeds before sowing (rice (Diamant variety); rice): 1·10^−10%
- Length, root (rice (Diamant variety); [10]): 7.2 cm
- Length, root, + % to control (rice (Diamant variety); [10]): 50%
- Length, sprout (rice (Diamant variety); [10]): 4.6 cm
- Length, sprout, + % to control (rice (Diamant variety); [10]): 77%
- Mass, dry, root (rice (Diamant variety); [10]): 0.26 g/100 plantlings
- Mass, dry, root, + % to control (rice (Diamant variety); [10]): 24%
- Mass, dry, sprout (rice (Diamant variety); [10]): 0.30 g/100 plantlings
- Mass, dry, sprout, + % to control (rice (Diamant variety); [10]): 20%
- Mass, wet, root (rice (Diamant variety); [10]): 1.39 g/100 plantlings
- Mass, wet, root, + % to control (rice (Diamant variety); [10]): 42%
- Mass, wet, sprout (rice (Diamant variety); [10]): 2.39 g/100 plantlings
- Mass, wet, sprout, + % to control (rice (Diamant variety); [10]): 58%
- Length, root (rice (Diamant variety); [11]): 6.0 cm
- Length, root, + % to control (rice (Diamant variety); [11]): 13%
- Length, sprout (rice (Diamant variety); [11]): 2.8 cm
- Length, sprout, + % to control (rice (Diamant variety); [11]): 4%
- Mass, dry, root (rice (Diamant variety); [11]): 0.23 g/100 plantlings
- Mass, dry, root, + % to control (rice (Diamant variety); [11]): 4.5%
- Mass, dry, sprout (rice (Diamant variety); [11]): 0.35 g/100 plantlings
- Mass, dry, sprout, + % to control (rice (Diamant variety); [11]): 21%
- Mass, wet, root (rice (Diamant variety); [11]): 1.17 g/100 plantlings
- Mass, wet, root, + % to control (rice (Diamant variety); [11]): 18%
- Mass, wet, sprout (rice (Diamant variety); [11]): 1.96 g/100 plantlings
- Mass, wet, sprout, + % to control (rice (Diamant variety); [11]): 10%
- Length, root (rice (Diamant variety); [12]): 6.4 cm
- Length, root, + % to control (rice (Diamant variety); [12]): 21%
- Length, sprout (rice (Diamant variety); [12]): 2.9 cm
- Length, sprout, + % to control (rice (Diamant variety); [12]): 7%
- Mass, dry, root (rice (Diamant variety); [12]): 0.25 g/100 plantlings
- Mass, dry, root, + % to control (rice (Diamant variety); [12]): 14%
- Mass, dry, sprout (rice (Diamant variety); [12]): 0.40 g/100 plantlings
- Mass, dry, sprout, + % to control (rice (Diamant variety); [12]): 40%
- Mass, wet, root (rice (Diamant variety); [12]): 1.26 g/100 plantlings
- Mass, wet, root, + % to control (rice (Diamant variety); [12]): 27%
- Mass, wet, sprout (rice (Diamant variety); [12]): 2.21 g/100 plantlings
- Mass, wet, sprout, + % to control (rice (Diamant variety); [12]): 24%
- Length, root (rice (Diamant variety); [13]): 6.6 cm
- Length, root, + % to control (rice (Diamant variety); [13]): 24.5%
- Length, sprout (rice (Diamant variety); [13]): 3.0 cm
- Length, sprout, + % to control (rice (Diamant variety); [13]): 11%
- Mass, dry, root (rice (Diamant variety); [13]): 0.26 g/100 plantlings
- Mass, dry, root, + % to control (rice (Diamant variety); [13]): 18%
- Mass, dry, sprout (rice (Diamant variety); [13]): 0.43 g/100 plantlings
- Mass, dry, sprout, + % to control (rice (Diamant variety); [13]): 48%
- Mass, wet, root (rice (Diamant variety); [13]): 1.35 g/100 plantlings
- Mass, wet, root, + % to control (rice (Diamant variety); [13]): 36%
- Mass, wet, sprout (rice (Diamant variety); [13]): 2.31 g/100 plantlings
- Mass, wet, sprout, + % to control (rice (Diamant variety); [13]): 30%
- Length, root (rice (Diamant variety); [14]): 7.0 cm
- Length, root, + % to control (rice (Diamant variety); [14]): 32%
- Length, sprout (rice (Diamant variety); [14]): 3.2 cm
- Length, sprout, + % to control (rice (Diamant variety); [14]): 18.5%
- Mass, dry, root (rice (Diamant variety); [14]): 0.29 g/100 plantlings
- Mass, dry, root, + % to control (rice (Diamant variety); [14]): 32%
- Mass, dry, sprout (rice (Diamant variety); [14]): 0.47 g/100 plantlings
- Mass, dry, sprout, + % to control (rice (Diamant variety); [14]): 62%
- Mass, wet, root (rice (Diamant variety); [14]): 1.46 g/100 plantlings
- Mass, wet, root, + % to control (rice (Diamant variety); [14]): 46%
- Mass, wet, sprout (rice (Diamant variety); [14]): 2.37 g/100 plantlings
- Mass, wet, sprout, + % to control (rice (Diamant variety); [14]): 33%
- Length, root (rice (Diamant variety); [15]): 7.2 cm
- Length, root, + % to control (rice (Diamant variety); [15]): 36%
- Length, sprout (rice (Diamant variety); [15]): 3.8 cm
- Length, sprout, + % to control (rice (Diamant variety); [15]): 41%
- Mass, dry, root (rice (Diamant variety); [15]): 0.35 g/100 plantlings
- Mass, dry, root, + % to control (rice (Diamant variety); [15]): 59%
- Mass, dry, sprout (rice (Diamant variety); [15]): 0.49 g/100 plantlings
- Mass, dry, sprout, + % to control (rice (Diamant variety); [15]): 69%
- Mass, wet, root (rice (Diamant variety); [15]): 1.62 g/100 plantlings
- Mass, wet, root, + % to control (rice (Diamant variety); [15]): 63%
- Mass, wet, sprout (rice (Diamant variety); [15]): 2.52 g/100 plantlings
- Mass, wet, sprout, + % to control (rice (Diamant variety); [15]): 41.5%
- Length, root (rice (Diamant variety); [16]): 6.7 cm
- Length, root, + % to control (rice (Diamant variety); [16]): 26%
- Length, sprout (rice (Diamant variety); [16]): 3.1 cm
- Length, sprout, + % to control (rice (Diamant variety); [16]): 15%
- Mass, dry, root (rice (Diamant variety); [16]): 0.27 g/100 plantlings
- Mass, dry, root, + % to control (rice (Diamant variety); [16]): 23%
- Mass, dry, sprout (rice (Diamant variety); [16]): 0.44 g/100 plantlings
- Mass, dry, sprout, + % to control (rice (Diamant variety); [16]): 52%
- Mass, wet, root (rice (Diamant variety); [16]): 1.44 g/100 plantlings
- Mass, wet, root, + % to control (rice (Diamant variety); [16]): 45%
- Mass, wet, sprout (rice (Diamant variety); [16]): 2.34 g/100 plantlings
- Mass, wet, sprout, + % to control (rice (Diamant variety); [16]): 31%
- Length, root (rice (Diamant variety); [17]): 6.3 cm
- Length, root, + % to control (rice (Diamant variety); [17]): 19%
- Length, sprout (rice (Diamant variety); [17]): 2.9 cm
- Length, sprout, + % to control (rice (Diamant variety); [17]): 7%
- Mass, dry, root (rice (Diamant variety); [17]): 0.23 g/100 plantlings
- Mass, dry, root, + % to control (rice (Diamant variety); [17]): 4.5%
- Mass, dry, sprout (rice (Diamant variety); [17]): 0.39 g/100 plantlings
- Mass, dry, sprout, + % to control (rice (Diamant variety); [17]): 34%
- Mass, wet, root (rice (Diamant variety); [17]): 1.31 g/100 plantlings
- Mass, wet, root, + % to control (rice (Diamant variety); [17]): 32%
- Mass, wet, sprout (rice (Diamant variety); [17]): 2.18 g/100 plantlings
- Mass, wet, sprout, + % to control (rice (Diamant variety); [17]): 22%
- dry mass of the roots increased by (rice (Diamant variety); [18]): 59%
- dry mass of the sprouts increased by (rice (Diamant variety); [18]): 69%
- length of the root increased by (rice (Diamant variety); [18]): 36%
- length of the sprout increased by (rice (Diamant variety); [18]): 41%
- wet mass of the roots increased by (rice (Diamant variety); [18]): 63%
- wet mass of the sprouts increased by (rice (Diamant variety); [18]): 41.5%
